The target of assay [1] is T1, LDL particles (Homo sapiens, UniProt P04114).
T1 construct: from tissue; host or cells: human blood plasma (LDL fraction d=1.019-1.063 g/ml, ultracentrifugation)
As to the kind of experiment: Ex vivo enrichment of LDL with phospholipid vesicles, then hrSMase-induced aggregation (DLS). To be noted: LDL from four healthy volunteers, enriched with 1 mM phospholipid vesicles. Format: biochemical. The procedure:
In the standard assay, LDL isolated from human plasma was extensively dialyzed against 20 mM MES buffer, pH 5.5, containing 150 mM NaCl and 50 μM ZnCl2 and its apoB-100 concentration was determined by ELISA (Mabtech). The sample was diluted with the same buffer to give a final concentration of 0.2 mg of apoB-100/ml and 75 μg/ml of hrSMase was added to LDL. The size of LDL was determined immediately and once every hour for up to 6-hours. An aliquot was taken at the same time points for phosphorylcholine measurement. The degree of SM hydrolysis was determined by measuring the amount of phosphorylcholine from the samples with Amplex Red reagent (Invitrogen).
To exchange LDL surface phospholipids, LDL (2 mg/ml) was incubated with phospholipid vesicles (1 mM phosphatidylcholine 18:1/16:0 (1-palmityl-2-oleyl-sn-glycero-3-phosphocholine), lysophosphatidylcholine 16:0 (1-Palmitoyl-2-Hydroxy-sn-Glycero-3-Phosphocoline) or sphingomyelin 16:0 (N-Palmitoyl-D-erythro-sphingosylphosphorylcholine) each from Avanti Polar Lipids) overnight at 37° C. in buffer A (5 mM Tris, 150 mM NaCl, 1 mM EDTA, pH 7.4). The vesicles had been prepared by sonicating 10 mM lipid solutions using a Branson Sonifier 250 sonicator (6 times for 5 minutes) in buffer A. Vesicles were removed with sequential ultracentrifugation (d<1.019 g/ml KBr) repeated twice. […]

Assay [2] concerns the target T2, apoB-100 (Homo sapiens, UniProt P04114).
T2 construct: from tissue; host or cells: human blood plasma (LDL fraction d=1.019-1.063 g/ml, ultracentrifugation)
As to the kind of experiment: Circular dichroism of phospholipid-enriched LDL after SMase treatment. To be noted: lipid-enriched LDL, SMase 30 min. Format: biochemical. The procedure: Samples of control and SM-, PC- and LPC-enriched LDL particles (1 mg/ml) were treated with SMase for 30-min and lipolysis was stopped by 10 mM EDTA. The LDL particles (50 μg/ml) were analyzed by CD as described previously (11,12).

Assay [3] concerns LDL. As to the kind of experiment: LDL aggregation induced by oxidation, proteolysis or lipolysis, followed by DLS. In kind it is biochemical, human. To be noted: LDL 0.5 mg/ml from four donors; hrSMase at pH 5.5, other agents at pH 7.4. The procedure: Firstly, inter-individual variability in LDL aggregation using agents that have been reported to cause LDL aggregation was tested. LDL aggregation was induced at LDL concentration of 0.5 mg/ml by oxidation (incubation with 5 μM CuSO4), by proteolysis (incubation with 0.1 mg/ml α-chymotrypsin from bovine pancreas (Sigma-Aldrich)), or by lipolysis (incubation with 50 mU/ml phospholipase A2 (PLA2) from bee venom (Sigma-Aldrich)), with 200 mU/ml SMase from Bacillus cereus (bcSMase, Sigma-Aldrich)), or with 75 μg/ml hrSMase (a kind gift from Genzyme or produced in house). The incubation buffer was 20 mM Tris-HCl, pH 7.4, containing 150 mM NaCl and 2 mM CaCl2 and 2 mM MgCl2, except in the case of hrSMase, where the incubation buffer was 20 mM MES, pH 5.5, containing 150 mM NaCl and 50 μM ZnCl2. LDL size was determined at the beginning of the incubation and aggregate size was determined at the indicated time points by dynamic light scattering (DLS) (Zetasizer Nano, Malvern Instruments, Malvern Works, UK or Wyatt DynaPro Plate Reader 11, Wyatt Technology, California, USA).

T1 sequence (P04114 28-4563): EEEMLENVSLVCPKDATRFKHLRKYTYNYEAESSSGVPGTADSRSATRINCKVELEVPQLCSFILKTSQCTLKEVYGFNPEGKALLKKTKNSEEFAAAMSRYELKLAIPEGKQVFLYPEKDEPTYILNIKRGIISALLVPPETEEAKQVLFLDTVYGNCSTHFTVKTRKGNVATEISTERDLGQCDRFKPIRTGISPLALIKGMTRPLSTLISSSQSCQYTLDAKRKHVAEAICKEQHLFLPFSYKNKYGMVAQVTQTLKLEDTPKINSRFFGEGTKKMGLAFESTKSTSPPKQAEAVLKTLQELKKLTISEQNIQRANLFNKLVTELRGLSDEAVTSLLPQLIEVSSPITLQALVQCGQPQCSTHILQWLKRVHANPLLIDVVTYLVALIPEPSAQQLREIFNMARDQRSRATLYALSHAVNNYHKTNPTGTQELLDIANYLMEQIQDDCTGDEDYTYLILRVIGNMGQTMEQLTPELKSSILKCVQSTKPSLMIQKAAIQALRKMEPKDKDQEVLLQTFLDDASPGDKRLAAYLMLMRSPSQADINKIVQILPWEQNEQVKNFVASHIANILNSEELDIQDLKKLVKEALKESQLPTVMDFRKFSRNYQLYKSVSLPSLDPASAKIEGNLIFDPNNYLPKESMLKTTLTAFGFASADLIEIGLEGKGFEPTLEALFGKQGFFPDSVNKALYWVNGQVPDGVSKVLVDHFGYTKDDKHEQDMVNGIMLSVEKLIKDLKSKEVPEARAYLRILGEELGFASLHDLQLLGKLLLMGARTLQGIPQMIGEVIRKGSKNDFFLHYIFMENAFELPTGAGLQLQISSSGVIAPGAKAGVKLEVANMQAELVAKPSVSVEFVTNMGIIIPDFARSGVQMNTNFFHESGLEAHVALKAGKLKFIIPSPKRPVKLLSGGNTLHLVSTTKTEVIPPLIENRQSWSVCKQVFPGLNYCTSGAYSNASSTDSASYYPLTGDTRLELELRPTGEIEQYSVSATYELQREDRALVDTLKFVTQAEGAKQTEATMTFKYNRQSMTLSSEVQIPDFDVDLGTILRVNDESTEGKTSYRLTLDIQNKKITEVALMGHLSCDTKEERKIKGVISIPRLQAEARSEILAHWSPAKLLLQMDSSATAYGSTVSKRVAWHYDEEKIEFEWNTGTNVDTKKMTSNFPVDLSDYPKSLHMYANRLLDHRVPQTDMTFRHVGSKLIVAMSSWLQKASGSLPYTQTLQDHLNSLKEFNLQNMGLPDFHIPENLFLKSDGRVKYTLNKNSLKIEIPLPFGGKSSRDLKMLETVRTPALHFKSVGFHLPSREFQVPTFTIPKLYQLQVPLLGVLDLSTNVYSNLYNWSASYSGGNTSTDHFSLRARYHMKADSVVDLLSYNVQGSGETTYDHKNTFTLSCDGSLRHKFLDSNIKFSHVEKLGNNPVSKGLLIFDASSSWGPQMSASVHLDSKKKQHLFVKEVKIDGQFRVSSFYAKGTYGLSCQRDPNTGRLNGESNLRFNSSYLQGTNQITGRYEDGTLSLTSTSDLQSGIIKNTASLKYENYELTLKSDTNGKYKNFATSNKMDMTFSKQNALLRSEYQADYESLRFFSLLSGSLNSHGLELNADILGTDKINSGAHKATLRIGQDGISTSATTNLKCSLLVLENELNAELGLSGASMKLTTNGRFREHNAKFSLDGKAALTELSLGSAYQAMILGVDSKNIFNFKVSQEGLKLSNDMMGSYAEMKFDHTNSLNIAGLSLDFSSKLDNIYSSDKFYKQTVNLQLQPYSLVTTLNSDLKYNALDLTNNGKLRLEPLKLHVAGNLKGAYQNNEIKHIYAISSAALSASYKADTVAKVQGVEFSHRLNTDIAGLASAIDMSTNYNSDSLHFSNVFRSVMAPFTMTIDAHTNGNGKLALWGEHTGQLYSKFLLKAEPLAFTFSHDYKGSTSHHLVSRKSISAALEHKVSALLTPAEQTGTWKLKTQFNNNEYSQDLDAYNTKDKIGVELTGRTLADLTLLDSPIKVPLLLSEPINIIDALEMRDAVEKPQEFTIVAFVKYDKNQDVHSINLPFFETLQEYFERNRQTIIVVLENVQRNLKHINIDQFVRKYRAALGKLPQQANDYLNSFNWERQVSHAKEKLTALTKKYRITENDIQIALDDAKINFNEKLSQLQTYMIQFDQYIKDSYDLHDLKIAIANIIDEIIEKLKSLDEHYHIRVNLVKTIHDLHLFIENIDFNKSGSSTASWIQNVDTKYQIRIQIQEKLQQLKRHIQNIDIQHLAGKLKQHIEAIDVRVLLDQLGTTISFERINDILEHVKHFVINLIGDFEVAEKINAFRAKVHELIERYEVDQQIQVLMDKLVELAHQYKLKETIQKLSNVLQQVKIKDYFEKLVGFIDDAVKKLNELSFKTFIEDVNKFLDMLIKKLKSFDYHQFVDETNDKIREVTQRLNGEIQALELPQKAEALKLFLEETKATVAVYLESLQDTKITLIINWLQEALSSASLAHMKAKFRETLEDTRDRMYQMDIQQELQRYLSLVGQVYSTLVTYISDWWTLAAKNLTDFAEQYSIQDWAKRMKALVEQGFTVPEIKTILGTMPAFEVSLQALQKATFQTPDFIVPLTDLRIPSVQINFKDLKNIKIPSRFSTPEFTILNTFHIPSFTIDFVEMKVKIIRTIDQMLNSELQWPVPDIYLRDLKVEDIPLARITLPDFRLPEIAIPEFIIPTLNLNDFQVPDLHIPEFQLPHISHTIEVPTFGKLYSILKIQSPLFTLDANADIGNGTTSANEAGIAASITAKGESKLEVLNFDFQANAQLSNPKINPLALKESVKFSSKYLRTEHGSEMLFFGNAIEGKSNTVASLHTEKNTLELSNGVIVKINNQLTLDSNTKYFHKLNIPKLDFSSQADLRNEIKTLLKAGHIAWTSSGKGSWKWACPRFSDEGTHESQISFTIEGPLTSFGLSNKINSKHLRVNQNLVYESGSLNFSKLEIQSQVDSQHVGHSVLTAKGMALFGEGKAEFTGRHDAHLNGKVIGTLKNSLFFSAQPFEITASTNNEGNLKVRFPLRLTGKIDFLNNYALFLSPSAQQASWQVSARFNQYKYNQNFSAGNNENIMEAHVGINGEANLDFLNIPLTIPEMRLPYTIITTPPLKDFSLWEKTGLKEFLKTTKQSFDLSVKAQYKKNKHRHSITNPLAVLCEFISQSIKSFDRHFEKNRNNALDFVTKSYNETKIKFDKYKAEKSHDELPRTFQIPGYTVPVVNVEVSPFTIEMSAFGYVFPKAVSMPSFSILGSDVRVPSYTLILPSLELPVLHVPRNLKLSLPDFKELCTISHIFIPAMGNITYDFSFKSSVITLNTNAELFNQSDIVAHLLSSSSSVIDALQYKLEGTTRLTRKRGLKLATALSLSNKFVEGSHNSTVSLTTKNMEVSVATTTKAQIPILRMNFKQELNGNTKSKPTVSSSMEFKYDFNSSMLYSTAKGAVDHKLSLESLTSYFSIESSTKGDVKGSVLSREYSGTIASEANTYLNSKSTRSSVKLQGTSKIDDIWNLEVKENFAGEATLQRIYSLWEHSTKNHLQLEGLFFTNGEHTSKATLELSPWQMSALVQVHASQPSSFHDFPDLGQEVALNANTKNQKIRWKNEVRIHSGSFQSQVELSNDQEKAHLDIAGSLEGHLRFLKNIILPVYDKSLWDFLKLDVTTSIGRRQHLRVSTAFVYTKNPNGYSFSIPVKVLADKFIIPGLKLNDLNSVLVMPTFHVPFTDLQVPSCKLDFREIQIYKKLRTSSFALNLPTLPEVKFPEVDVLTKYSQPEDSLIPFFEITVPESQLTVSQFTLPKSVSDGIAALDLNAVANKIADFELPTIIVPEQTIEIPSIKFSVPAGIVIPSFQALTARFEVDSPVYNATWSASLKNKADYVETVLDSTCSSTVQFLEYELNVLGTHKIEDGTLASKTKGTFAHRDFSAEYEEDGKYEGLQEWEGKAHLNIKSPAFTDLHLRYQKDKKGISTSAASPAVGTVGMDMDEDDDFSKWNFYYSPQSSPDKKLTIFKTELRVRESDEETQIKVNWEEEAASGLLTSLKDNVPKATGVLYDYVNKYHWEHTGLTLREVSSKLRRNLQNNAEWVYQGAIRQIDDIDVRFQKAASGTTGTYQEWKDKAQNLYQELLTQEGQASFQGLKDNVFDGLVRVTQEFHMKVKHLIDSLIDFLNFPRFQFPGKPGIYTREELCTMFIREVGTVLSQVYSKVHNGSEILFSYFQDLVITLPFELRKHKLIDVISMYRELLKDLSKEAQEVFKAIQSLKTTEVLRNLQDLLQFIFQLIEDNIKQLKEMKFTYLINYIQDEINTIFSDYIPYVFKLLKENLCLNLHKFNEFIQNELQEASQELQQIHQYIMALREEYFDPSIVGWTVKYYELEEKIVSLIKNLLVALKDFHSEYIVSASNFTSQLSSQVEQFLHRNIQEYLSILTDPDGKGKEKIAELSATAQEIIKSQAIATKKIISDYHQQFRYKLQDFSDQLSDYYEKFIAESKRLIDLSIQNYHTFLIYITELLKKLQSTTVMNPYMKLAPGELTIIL
T2 sequence (P04114 28-4563): as above

Regarding `CCCCCCCCCCCCC/C=C/[C@@H](O)[C@H](COP(=O)([O-])OCC[N+](C)(C)C)NC(=O)CCCCCCCCCCCCCCC` [SM 18:1/16:0, N-Palmitoyl-D-erythro-sphingosylphosphorylcholine], the “Susceptibility of lipid-enriched LDL to aggregate during incubation with hrSMase, vs control LDL” value in assay [1] is reported as “more susceptible”. Further, the “SMase-induced conformational changes in apoB-100” value in assay [2] is given as “enhanced”. As to `CCCCCCCCCCCCCCCC(=O)OC[C@@H](O)COP(=O)([O-])OCC[N+](C)(C)C` [LPC 16:0, 1-Palmitoyl-2-Hydroxy-sn-Glycero-3-Phosphocoline], the “Susceptibility of lipid-enriched LDL to aggregate during incubation with hrSMase, vs control LDL” value in assay [1] was “less susceptible”.

B1: bcSMase: SMase from Bacillus cereus (Sigma-Aldrich) (protein, UniProt P09599 28-333, looked up)
Sphingomyelinase C: DTSTDQNNTLKVMTHNVYMLSTNLYPNWGQSQRADLIGAADYIKNQDVVILNEVFDNSASDRLLGNLKKEYPNQTAVLGRSNGNEWDKTLGSYSSSTPEDGGVAIVSKWPIVEKIQYVFAKGCGPDNLSNKGFVYTKIKKNDRFVHVIGTHLQAEDSMCGKTSPASVRTNQLKEIQDFIKNKNIPNDEYVLFGGDMNVNKINAENNSDSEYASMFKTLHASIPSYTGHTATWDATTNSIAKYNFPDSPAEYLDYIIASKDHANPSFIENKVLQPKSPQWTVTSWLKKYTYDDYSDHYPVAATISMK
For B1, in assay [3], the “Aggregation of LDL” value is given as “caused aggregation”.

The record behind these values is patent US11442072B2, “Method for measuring LDL aggregation” (Jenny and Antti Wihuri Foundation, priority 2018, dated 2022).
